Consider 23 molecules from PubChem BioAssay AID1259408 (Genetic Toxicology Data Bank (GENE-TOX), 2018).

Activity calls are given as the source filed them. How the calls were made is not given here.

This data set has as its system GENE-TOX genotoxicity assays, various organisms and cells. The data set is described as follows: GENE-TOX mutagenicity studies. Particulars: for call: Assay Type: In vivo carcinogenicity studies.
The mark [1] stands for this setting: Species/Cell Type: Nonhuman, Assay Code: CCGT, Evaluation Type: Evaluation A (Pre-1980).
The mark [2] stands for this setting: Species/Cell Type: Rodents, Sex: Male, Assay Type: Dominant lethal test, Assay Code: DLT-, Evaluation Type: Evaluation A (Pre-1980).
The mark [3] stands for this setting: Species/Cell Type: Human lymphocytes, Assay Type: Sister-chromatid exchange (SCE) in vitro, Assay Code: SCLT, Evaluation Type: Evaluation B (Post-1980).
Where [4] appears, read: Species/Cell Type: Human, Assay Type: Sister-chromatid exchange (SCE) in vitro, Assay Code: SC1T, Evaluation Type: Evaluation B (Post-1980).
The mark [5] stands for this setting: Species/Cell Type: Salmonella typhimurium (one or more of the five standard strains: TA98, TA100, TA1535, TA1537, and TA1538), Assay Type: Histidine reverse gene mutation, Ames assay, Assay Code: SALT, Evaluation Type: Evaluation A (Pre-1980).
The mark [6] stands for this setting: Species/Cell Type: Chinese hamster lung (V79) cells, Assay Type: Forward gene mutation at the HPRT or ouabain locus, Assay Code: V79+, Evaluation Type: Evaluation A (Pre-1980).
Where [7] appears, read: Species/Cell Type: Salmonella typhimurium (one or more of the five standard strains: TA98, TA100, TA1535, TA1537, and TA1538), Assay Type: Histidine reverse gene mutation, Ames assay, Assay Code: SAL+, Evaluation Type: Evaluation A (Pre-1980).
[8] abbreviates: Species/Cell Type: Schizosaccharomyces pombe, Assay Type: Reverse gene mutation, Assay Code: YEZ+, Evaluation Type: Evaluation A (Pre-1980).
[9] abbreviates: Species/Cell Type: Bacillus subtilis (H17 vs M45), Assay Type: Rec-assay, spot test, DNA effects (bacterial DNA repair), Assay Code: REW+, Evaluation Type: Evaluation A (Pre-1980).
The mark [10] stands for this setting: Species/Cell Type: Human lymphocytes, Assay Type: Sister-chromatid exchange (SCE) in vitro, Assay Code: SCL+D, Dose Response: With dose response, Evaluation Type: Evaluation B (Post-1980).
Where [11] appears, read: Species/Cell Type: Human, Assay Type: Sister-chromatid exchange (SCE) in vitro, Assay Code: SC1+D, Dose Response: With dose response, Evaluation Type: Evaluation B (Post-1980).

In the case of `NC1CCCCC1`, the mutagenic call was “no conclusion” (Species/Cell Type: Drosophila melanogaster, Assay Type: Aneuploidy, whole sex chromosome loss, chromosome aberrations, Assay Code: DACT, Evaluation Type: Evaluation A (Pre-1980)); “inactive; negative” (Species/Cell Type: Drosophila melanogaster, Assay Type: Sex-linked recessive lethal gene mutation, Assay Code: SRL-, Evaluation Type: Evaluation A (Pre-1980)); “inactive; negative” (Species/Cell Type: Drosophila melanogaster, Sex: Male, Assay Type: Heritable translocation test, chromosome aberrations, Assay Code: DHT-, Evaluation Type: Evaluation A (Pre-1980)); “no conclusion” (Species/Cell Type: Escherichia coli polA (W3119 vs P3478), Assay Type: Rec-assay, DNA effects (bacterial DNA repair), Assay Code: RE1T, Evaluation Type: Evaluation A (Pre-1980)); “inactive; negative” (Species/Cell Type: Human lymphocytes or leukocytes, Assay Type: Chromosome aberrations in vitro, Assay Code: CY7-, Evaluation Type: Evaluation A (Pre-1980)); “active; positive” (Species/Cell Type: Mammalian germ cells, Sex: Male, Assay Type: Chromosome aberrations in vivo, Assay Code: CY9+, Evaluation Type: Evaluation A (Pre-1980)). In addition, the mutagenic call reads like this: (Species/Cell Type: Nonhuman bone marrow, Assay Type: Chromosome aberrations, in vivo, Assay Code: CY#-, Evaluation Type: Evaluation A (Pre-1980)) “inactive; negative”; (Species/Cell Type: Nonhuman, Assay Type: Chromosome aberrations in vitro, Assay Code: CY&+D, Dose Response: With dose response, Evaluation Type: Evaluation A (Pre-1980)) “active; positive”; (Species/Cell Type: Rat, Sex: Male, Assay Type: Sperm morphology, Assay Code: SPA+, Evaluation Type: Evaluation A (Pre-1980)) “active; positive”; under setting [2], “inactive; negative”; (Species/Cell Type: Rodents, Sex: Male, Assay Type: Dominant lethal test, Assay Code: DLTT, Evaluation Type: Evaluation A (Pre-1980)) “no conclusion”; (Species/Cell Type: Salmonella typhimurium, Serratia marcesens, Assay Type: Forward and reverse gene mutation, host-mediated assay, Assay Code: HM2T, Evaluation Type: Evaluation A (Pre-1980)) “no conclusion”. Moreover, where the note is “Species/Cell Type: Syrian hamster embryo (SA7/SHE) cells, Assay Type: Cell transformation, viral enhanced, Assay Code: CT7+, Evaluation Type: Evaluation A (Pre-1980)”, the mutagenic call is “active; positive”. In addition, the call under setting [1] was “no conclusion”.
For `CC(C)C[C@H]1C(=O)N2CCC[C@H]2[C@]2(O)O[C@](NC(=O)[C@@H]3C=C4c5cccc6[nH]c(Br)c(c56)C[C@H]4N(C)C3)(C(C)C)C(=O)N12`, the mutagenic call under setting [3] was “no conclusion”; the mutagenic call under setting [4] was “no conclusion”; the mutagenic call (Species/Cell Type: Human, Sex: Male, Assay Type: Sperm morphology, Assay Code: SPH-, Evaluation Type: Evaluation A (Pre-1980)) was “inactive; negative”.
On to `c1cc2c3c(cccc3c1)CC2`, for which the mutagenic call (Species/Cell Type: Drosophila melanogaster, Assay Type: Aneuploidy, sex chromosome gain, chromosome aberrations, Assay Code: DAGT, Evaluation Type: Evaluation A (Pre-1980)) is “no conclusion”.
As for `OCCN(CCO)c1nc(-c2cccs2)nc2ccccc12`, the mutagenic call under setting [5] is reported as “no conclusion”.
Regarding `Cc1c2c(c(CO)c3ccc4ccccc4c13)C=C[C@H](O)[C@H]2O`, the call under setting [1] is on record as “no conclusion”.
As for `CN1CCN(CCCN2c3ccccc3Sc3ccccc32)CC1`, the mutagenic call reads like this: under setting [3], “no conclusion”; under setting [4], “no conclusion”.
For the molecule `Nc1nncs1`, the mutagenic call is, setting by setting: (Species/Cell Type: Drosophila melanogaster, Assay Type: Aneuploidy, sex chromosome gain, chromosome aberrations, Assay Code: DAG+M, Evaluation Type: Evaluation A (Pre-1980)) “active; positive”; (Species/Cell Type: Drosophila melanogaster, Assay Type: Aneuploidy, whole sex chromosome loss, chromosome aberrations, Assay Code: DAC+M, Evaluation Type: Evaluation A (Pre-1980)) “active; positive”; (Species/Cell Type: Drosophila melanogaster, Sex: Male, Assay Type: Heritable translocation test, chromosome aberrations, Assay Code: DHTT, Evaluation Type: Evaluation A (Pre-1980)) “no conclusion”.
On to `ClC1CO1` (stereo unspecified), for which the mutagenic call reads like this: under setting [6], “active; positive”; (Species/Cell Type: Saccharomyces cerevisiae, Assay Type: Mitotic recombination or gene conversion, Assay Code: YEC+, Evaluation Type: Evaluation A (Pre-1980)) “active; positive”; under setting [7], “active; positive”; under setting [8], “active; positive”. Moreover, the call (Species/Cell Type: Nonhuman, Assay Code: CCG+L, Evaluation Type: Evaluation A (Pre-1980)) was “active; positive”.
Turning to `Cc1c2c(c(CO)c3ccc4ccccc4c13)[C@H](O)[C@@H](O)C=C2`, the mutagenic call under setting [6] was “active; positive”. In addition, the call under setting [1] is “no conclusion”.
On to `COc1c2occc2c(OC)c2c(=O)cc(C)oc12`, for which the mutagenic call (Species/Cell Type: Human, Assay Type: Sister-chromatid exchange (SCE) in vitro, Assay Code: SC1T, Evaluation Type: Evaluation A (Pre-1980)) was “no conclusion”.
On to `O=[Se]=O`, for which the mutagenic call under setting [9] was “active; positive”; the mutagenic call under setting [10] is “active; positive”; the mutagenic call under setting [11] was “active; positive”; the mutagenic call (Species/Cell Type: Nonhuman, Assay Type: Sister-chromatid exchange (SCE) in vitro, Assay Code: SC2-, Evaluation Type: Evaluation B (Post-1980)) was “inactive; negative”.
With `O=C(O)CNC(=O)c1ccccc1`, the mutagenic call is “inactive; negative” (Species/Cell Type: Escherichia coli WP2, Assay Type: Tryptophan reverse gene mutation, Assay Code: WP2-*, Activation: With metabolic activation, Evaluation Type: Evaluation A (Pre-1980)) and “inactive; negative” (Species/Cell Type: Escherichia coli WP2 UVRA, Assay Type: Tryptophan reverse gene mutation, Assay Code: WPU-*, Activation: With metabolic activation, Evaluation Type: Evaluation A (Pre-1980)).
For the molecule `CCNP(=O)(N1CC1)N1CC1`, the mutagenic call reads like this: (Species/Cell Type: Nonhuman bone marrow, Assay Type: Chromosome aberrations, in vivo, Assay Code: CY#+, Evaluation Type: Evaluation A (Pre-1980)) “active; positive”; (Species/Cell Type: Nonhuman, Assay Type: Chromosome aberrations in vitro, Assay Code: CY&+, Evaluation Type: Evaluation A (Pre-1980)) “active; positive”; under setting [8], “active; positive”.
For `[Cl][Rh]([Cl])[Cl]`, under setting [9], the mutagenic call is “active; positive”.
As to `C=CCOc1ccccc1OCC(O)CNC(C)C` (stereo unspecified), the mutagenic call (Species/Cell Type: Mammalian polychromatic erythrocytes, Assay Type: Micronucleus test, chromosome aberrations, Assay Code: MNT+, Evaluation Type: Evaluation B (Post-1980)) is “active; positive”.
On to `[2H]C1([2H])CNP(=O)(N(CCCl)CCCl)OC1` (stereo unspecified), for which the mutagenic call (Species/Cell Type: Nonhuman, Assay Type: Sister-chromatid exchange (SCE) in vitro, Assay Code: SC2+D*, Activation: With metabolic activation, Dose Response: With dose response, Evaluation Type: Evaluation B (Post-1980)) is “active; positive”.
For the molecule `NC(=O)OCCO`, the mutagenic call reads like this: (Species/Cell Type: Nonhuman, Assay Type: Sister-chromatid exchange (SCE) in vitro, Assay Code: SC2+*, Activation: With metabolic activation, Evaluation Type: Evaluation B (Post-1980)) “active; positive”; (Species/Cell Type: Nonhuman, Assay Type: Sister-chromatid exchange (SCE) in vivo, Assay Code: SC3T, Evaluation Type: Evaluation B (Post-1980)) “no conclusion”.
For the molecule `C1=CC[C@@H](c2cccnc2)NC1`, the mutagenic call (Species/Cell Type: Nonhuman, Assay Type: Sister-chromatid exchange (SCE) in vitro, Assay Code: SC2+D, Dose Response: With dose response, Evaluation Type: Evaluation B (Post-1980)) was “active; positive”.
For `CCCCCCCCCC(=O)OCCCN1CCN(C2Cc3ccccc3Sc3ccc(SC)cc32)CC1` (stereo unspecified), the mutagenic call under setting [2] was “inactive; negative”.
Regarding `OCC1CO1` (stereo unspecified), the mutagenic call is, setting by setting: (Species/Cell Type: Escherichia coli polA (W3119 vs P3478), Assay Type: Rec-assay, DNA effects (bacterial DNA repair), Assay Code: RE1+, Evaluation Type: Evaluation A (Pre-1980)) “active; positive”; (Species/Cell Type: Human diploid fibroblasts, Assay Type: Unscheduled DNA synthesis (UDS) in vitro, DNA effects, Assay Code: UDH-, Evaluation Type: Evaluation A (Pre-1980)) “inactive; negative”; under setting [10], “active; positive”; under setting [11], “active; positive”; (Species/Cell Type: Neurospora crassa, Assay Type: Reverse gene mutation, Assay Code: NER+, Evaluation Type: Evaluation A (Pre-1980)) “active; positive”; (Species/Cell Type: Saccharomyces cerevisiae, Assay Type: Mitotic recombination or gene conversion, Assay Code: YEH+, Evaluation Type: Evaluation A (Pre-1980)) “active; positive”. The mutagenic call reads like this: under setting [7], “active; positive”; under setting [8], “active; positive”; (Species/Cell Type: Syrian hamster embryo (SHE) cells, Assay Type: Cell transformation, clonal assay, Assay Code: CTCT, Evaluation Type: Evaluation A (Pre-1980)) “no conclusion”.
Regarding `COc1ccc2c3c(n(CC=C(C)C)c2c1)[C@H](C=C(C)C)N1C(=O)[C@@H]2CCCN2C(=O)[C@]1(O)[C@H]3O`, under setting [5], the mutagenic call is recorded as “no conclusion”.
Take `CCOP(=S)(OCC)SCSc1ccc(Cl)cc1`: the mutagenic call (Species/Cell Type: Human, Assay Type: Sister-chromatid exchange (SCE) in vitro, Assay Code: SC1+, Evaluation Type: Evaluation B (Post-1980)) is “active; positive”.
In the case of `CCCN(CCC)S(=O)(=O)c1ccc(C(=O)O)cc1`, the mutagenic call (Species/Cell Type: Saccharomyces cerevisiae, Assay Type: Mitotic recombination or gene conversion, Assay Code: YEC-*, Activation: With metabolic activation, Evaluation Type: Evaluation A (Pre-1980)) was “inactive; negative”.
